pIC50: −log10 of the molar value. “Also recorded” adds a separate entry of the source. No end group written: not given here. *: point of attachment. Myristyl = CCCCCCCCCCCCCC*
What was measured:
[1] = molecular target: T1, complex of PDL1-PTM1 and IMPα1 (Homo sapiens, UniProt P52292); test: DUOLINK proximity assay PDL1-PTM1 (PDL1-Ac) and IMPα1, MDA-MB-231; assay type: cell-based; conditions: for complex of PDL1-PTM1 and IMPα1 (DUOLINK): MDA-MB-231
T1 construct: endogenous in cells; host or cells: MDA-MB-231
Experimental: MDA-MB-231 cells were treated with DL-2; with concentrations ranging from 10 μM to 0.00975 μM. MDA-MB-231 cells were treated with DL-2 or Control and were permeabilized and were probed with the DUOLINK ligation assay. Cover slips were mounted on glass microscope slides with Prolong nucleus glass Antifade reagent (Life Technologies). PDL1-Ac and IMPα1 DUOLINK Digital images were analyzed using ImageJ software (ImageJ, NIH, Bethesda, MD, USA) and graphs represent the mean DOT Fluorescent Intensity in the nucleus or the cytoplasm compartments with significant differences calculated as per Kruskal-Wallis one-way ANOVA.
MDA-MB-231 of were treated with vehicle control, DL-2-Batch 1, DL-2-Batch 2, or linear PDL1 peptide. Cells were permeabilised and were probed with the DUOLINK ligation assay. Cover slips were mounted on glass microscope slides with Prolong nucleus glass Antifade reagent (Life Technologies). PDL1Ac and IMPα1 DUOLINK Digital images were analysed using ImageJ software (ImageJ, NIH, Bethesda, MD, USA) and graphs represent the mean DOT Fluorescent Intensity in the nucleus or the cytoplasm compartments with significant differences calculated as per One-Way ANOVA comparison.
(A) CT26, 4T1 or MDA-MB-231 Cells were treated with inhibitors for 72 hours. Following inhibition, media was removed and replaced with WST-1 cell proliferation reagent. Absorbance was recorded at 450 nm after 1 hour. Data represent a single independent experiment performed in triplicate. Results are graphed as mean +/− standard error (SE). […] PDL1Ac and IMPα1 DUOLINK Digital images were analysed using ImageJ software (ImageJ, NIH, Bethesda, MD, USA) and graphs represent the mean DOT Fluorescent Intensity in the nucleus or the cytoplasm compartments with significant differences calculated as per one-way ANOVA comparison. […] PDL1-unmodified and IMPα1 DUOLINK digital images were analysed using ImageJ software (ImageJ, NIH, Bethesda, MD, USA) and graphs represent the mean DOT fluorescent intensity in the nucleus or the cytoplasm compartments with significant differences calculated as per one-way ANOVA comparison. […]

[2] = molecular target: T2, complex of PDL1 (unmodified) and IMPα1 (Homo sapiens, UniProt P52292); test: DUOLINK proximity assay PDL1 (unmodified) and IMPα1, MDA-MB-231; assay type: cell-based; conditions: for complex of PDL1 (unmodified) and IMPα1 (DUOLINK): MDA-MB-231
T2 construct: endogenous in cells; host or cells: MDA-MB-231
Experimental: To characterize unmodified PDL1 and IMPα1, MDA-MB-231 cells or CT26 cells were treated with vehicle control, DL-2-batch 1, DL-2-batch 2 or linear PDL1. Cells were permeabilised and were probed with the DUOLINK ligation assay. Cover slips were mounted on glass microscope slides with ProLong nucblue glass Antifade reagent (Life Technologies). PDL1 (unmodified) and IMPα1 DUOLINK Digital images were analysed using ImageJ software (ImageJ, NIH, Bethesda, MD, USA) and graphs represent the mean DOT Fluorescent Intensity in the nucleus or the cytoplasm compartments with significant differences calculated as per One-Way ANOVA comparison.
(A) CT26, 4T1 or MDA-MB-231 Cells were treated with inhibitors for 72 hours. Following inhibition, media was removed and replaced with WST-1 cell proliferation reagent. Absorbance was recorded at 450 nm after 1 hour. Data represent a single independent experiment performed in triplicate. Results are graphed as mean +/− standard error (SE). B) MDA-MB-231 or CT26 cancer cells were treated with vehicle control, DL-2-Batch 1 (original stock), DL-2-Batch 2 (current stock), DL-2-TBAB or linear PDL1. Cells were permeabilised and were probed with the DUOLINK ligation assay. Cover slips were mounted on glass microscope slides with ProLong nucblue glass Antifade reagent (Life Technologies). PDL1Ac and IMPα1 DUOLINK Digital images were analysed using ImageJ software (ImageJ, NIH, Bethesda, MD, USA) and graphs represent the mean DOT Fluorescent Intensity in the nucleus or the cytoplasm compartments with significant differences calculated as per one-way ANOVA comparison. […] PDL1-unmodified and IMPα1 DUOLINK digital images were analysed using ImageJ software (ImageJ, NIH, Bethesda, MD, USA) and graphs represent the mean DOT fluorescent intensity in the nucleus or the cytoplasm compartments with significant differences calculated as per one-way ANOVA comparison.
MDA-MB-231 and CT26 cells were treated with vehicle control, DL-2-Batch 1, DL-2-Batch 2, DL-2-TBAB (TBAB scaffold), DL-2-D (D-Isomer) or linear PDL1. […] PDL1 (unmodified) and IMPα1 and PDL1-PTM1 and IMPα1 DUOLINK digital images were analysed using ImageJ software (ImageJ, NIH, Bethesda, MD, USA) and graphs represent the mean DOT Fluorescent Intensity in the nucleus or the cytoplasm compartments with significant differences calculated as per One-Way ANOVA comparison. […]
MDA-MB-231 cells were treated with vehicle control (hollow nanoparticle), DL-2-NP at a concentration of 10 nM to 0.3 nM. […] PDL1 (unmodified) & IMPα1 DUOLINK digital images were analysed using ImageJ software (ImageJ, NIH, Bethesda, MD, USA) and graphs represent the mean DOT Fluorescent Intensity in the nucleus or the cytoplasm compartments with significant differences calculated as per One-WayANOVA comparison.

Molecule | complex of PDL1-PTM1 and IMPα1 (DUOLINK) [1] | pIC50 ([1]; MDA-MB-231, 10 μM to 0.00975 μM) | complex of PDL1 (unmodified) and IMPα1 (DUOLINK) [2] | pIC50 ([2]; MDA-MB-231, DUOLINK, read-out: IC50 for abrogating the PDL1 and IMPα1 complex) | complex of PDL1 (unmodified) and IMPα1 (DUOLINK) ([2]; listed as linear PDL1 peptide)
CCCCCCCCCCCCCC(=O)NC(C)C(=O)NC1CSCc2cc3cc(c2)CSC[C@H](NC(=O)[C@H](Cc2ccccc2)NC(=O)[C@H](C(C)CC)NC(=O)[C@H](Cc2ccccc2)NC(=O)[C@H]([C@@H](C)O)NC(=O)C(CC(C)C)NC1=O)C(=O)N[C@@H](CCCNC(C)=N)C(=O)N[C@@H](CC(C)C)C(=O)N[C@@H](CCCNC(=N)N)C(=O)N[C@@H](CCCCN)C(=O)NCC(=O)N[C@@H](CCCNC(=N)N)C(=O)NC(C(=O)N[C@@H](CCSC)C(=O)NC(CCSC)C(=O)N[C@@H](CC(=O)O)C(=O)NC(C(=O)N[C@@H](CCCCN)C(=O)NC(CCCCN)C(=O)O)C(C)C)CSC3 (mixture of isomers) [DL-2] | abrogate the complex of PDL1 and IMPα1 in a dose dependent manner; also recorded: able to abrogate the complex | 7.41 | able to abrogate the complex | 7.41 | 
LTFIFRLRKGRMMDVKK (Myristyl-LTFIFRLRKGRMMDVKK) [PDL1-L1, Myristyl- linear peptide, prototype] | unable to significantly prevent the complex; also recorded: no change |  | unable to significantly impact the complex; also recorded: no change |  | unable to significantly inhibit this complex

Source: US20240117005A1, “NOVEL BICYCLIC PEPTIDES” (THE COUNCIL OF THE QUEENSLAND INSTITUTE OF MEDICAL RESEARCH, priority 2021, published 2024)
